{"source": "paper PMC1977485", "about": "“The renal effects of N10-propargyl-5,8-dideazafolic acid (CB3717) and a non-nephrotoxic analogue ICI D1694, in mice” (British Journal of Cancer, 1991)", "key": {"[1]": {"system": "C57/DBA2 mice", "assay": "Plasma urea concentration", "format": "in vivo", "conditions": "single dose 100 mg kg-1, at 9, 10, 11 and 14 weeks, small number of animals", "from_the_text": "Br .Cncr(91) 4 3-88?McilnPesLd,19 The renal effects of N1l-propargyl-5,8-dideazafolic acid (CB3717) and a non-nephrotoxic analogue ICI D1694, in mice D.I. Jodrell', D.R. Newelll,*, S.E. Morgan', S. Clinton2, J.P.M. Bensted2, L.R. Hughes3 & A.H. Calvertl,* 'Clinical Pharmacology Team, Drug Development Section, and 2Histopathology Section, Institute of Cancer Research, 15 Cotswold Road, Sutton, Surrey SM2 SNG; and 3ICI Pharmaceuticals, Mereside, Alderley Park, Macclesfield, Cheshire SKIO 4TG, UK. Summary N-(5-[N-(3,4-dihydro-2-methyl-4-oxoquinazolin-6-ylmethyl)-N-methylamino]-2-thenoyl)-L-glutamic acid (ICI D1694) is an analogue of the thymidylate synthase inhibitor, N'?-propargyl-5,8-dideazafolic acid (CB3717). […] Previous studies have shown ICI D1694 to be non-toxic to the kidney following a single administration but its renal effects after chronic administration are unknown. […] The '4C-inulin clearance assay developed was used to show a linear relationship between CB3717 dosage and renal damage (r=-0.989) following a single bolus dose (50-200mgkg-'), in mice. CB3717-induced renal damage is persistent (>6 weeks) and renal scarring was noted. […] The plasma concentrations of urea and creatinine are com- monly measured to assess renal function during toxicological screening of new drugs. […]"}, "[2]": {"system": "C57/DBA2 mice", "assay": "GFR by 14C-inulin clearance, single timed plasma sample, in drug treated mice", "format": "in vivo", "from_the_text": "Br .Cncr(91) 4 3-88?McilnPesLd,19 The renal effects of N1l-propargyl-5,8-dideazafolic acid (CB3717) and a non-nephrotoxic analogue ICI D1694, in mice D.I. Jodrell', D.R. Newelll,*, S.E. Morgan', S. Clinton2, J.P.M. Bensted2, L.R. Hughes3 & A.H. Calvertl,* 'Clinical Pharmacology Team, Drug Development Section, and 2Histopathology Section, Institute of Cancer Research, 15 Cotswold Road, Sutton, Surrey SM2 SNG; and 3ICI Pharmaceuticals, Mereside, Alderley Park, Macclesfield, Cheshire SKIO 4TG, UK. Summary N-(5-[N-(3,4-dihydro-2-methyl-4-oxoquinazolin-6-ylmethyl)-N-methylamino]-2-thenoyl)-L-glutamic acid (ICI D1694) is an analogue of the thymidylate synthase inhibitor, N'?-propargyl-5,8-dideazafolic acid (CB3717). […] Previous studies have shown ICI D1694 to be non-toxic to the kidney following a single administration but its renal effects after chronic administration are unknown. […] The '4C-inulin clearance assay developed was used to show a linear relationship between CB3717 dosage and renal damage (r=-0.989) following a single bolus dose (50-200mgkg-'), in mice. CB3717-induced renal damage is persistent (>6 weeks) and renal scarring was noted. […] However, the clinical use of CB3717 was limited by its nephrotoxicity, which was observ- ed in Phase I studies of both weekly (Vest et al., 1988) and 3-weekly administration schedules (Calvert et al., 1986; Sessa et al., 1988). Renal toxicity manifested primarily as a reduc- tion in glomerular filtration rate (GFR). However, tubular damage was also identified by the measurement of the urin- ary enzymes, N-acetyl glucosaminidase (NAG) and leucine aminopeptidase (LAP). […] In addition, urinary NAG and LAP levels were elevated in 50% of patients studied, although this elevation was not dose related (Calvert et al., 1986). CB3717-induced nephrotoxicity was thought to be due to the compound's relative insolubility at acid pH. […] The plasma concentrations of urea and creatinine are com- monly measured to assess renal function during toxicological screening of new drugs. […]"}, "[3]": {"design": "method as in Newell et al., 1986", "conditions": "radiolabelled CB3717, mice, 23 days after administration; ref Newell et al., 1986; cited from earlier work"}, "[4]": {"system": "C57/DBA2 mice", "assay": "Histological examination of the kidney (H&E)", "format": "in vivo", "from_the_text": "Br .Cncr(91) 4 3-88?McilnPesLd,19 The renal effects of N1l-propargyl-5,8-dideazafolic acid (CB3717) and a non-nephrotoxic analogue ICI D1694, in mice D.I. Jodrell', D.R. Newelll,*, S.E. Morgan', S. Clinton2, J.P.M. Bensted2, L.R. Hughes3 & A.H. Calvertl,* 'Clinical Pharmacology Team, Drug Development Section, and 2Histopathology Section, Institute of Cancer Research, 15 Cotswold Road, Sutton, Surrey SM2 SNG; and 3ICI Pharmaceuticals, Mereside, Alderley Park, Macclesfield, Cheshire SKIO 4TG, UK. Summary N-(5-[N-(3,4-dihydro-2-methyl-4-oxoquinazolin-6-ylmethyl)-N-methylamino]-2-thenoyl)-L-glutamic acid (ICI D1694) is an analogue of the thymidylate synthase inhibitor, N'?-propargyl-5,8-dideazafolic acid (CB3717). […] Previous studies have shown ICI D1694 to be non-toxic to the kidney following a single administration but its renal effects after chronic administration are unknown. […] The '4C-inulin clearance assay developed was used to show a linear relationship between CB3717 dosage and renal damage (r=-0.989) following a single bolus dose (50-200mgkg-'), in mice. CB3717-induced renal damage is persistent (>6 weeks) and renal scarring was noted. […] However, the clinical use of CB3717 was limited by its nephrotoxicity, which was observ- ed in Phase I studies of both weekly (Vest et al., 1988) and 3-weekly administration schedules (Calvert et al., 1986; Sessa et al., 1988). Renal toxicity manifested primarily as a reduc- tion in glomerular filtration rate (GFR). However, tubular damage was also identified by the measurement of the urin- ary enzymes, N-acetyl glucosaminidase (NAG) and leucine aminopeptidase (LAP). […] In addition, urinary NAG and LAP levels were elevated in 50% of patients studied, although this elevation was not dose related (Calvert et al., 1986). CB3717-induced nephrotoxicity was thought to be due to the compound's relative insolubility at acid pH. […] To circumvent toxicity related to drug precipitation in the kidney, a series of more soluble analogues of CB3717 have been synthesised. […] One such analogue, N-(5-[N-(3,4-dihydro-2- methyl- 4 -oxoquinazolin- 6 -ylmethyl)- N -methylamino]-2-the- noyl) L-glutamic acid (ICI D1694, Figure lii) has been selected for preclinical development (Jackman et al., 1991). The plasma concentrations of urea and creatinine are com- monly measured to assess renal function during toxicological screening of new drugs. However, these parameters are rela- tively insensitive, because, in mice, a rise in plasma urea and creatinine concentration only occurs following the loss of 70-75% of functional renal mass (Everett & Harrison, 1983). Specificity is also poor because an elevation in plasma urea may be caused by 'pre-renal' (increased protein catabolism, gastric or intestinal bleeding and dehydration) or 'post-renal' (obstruction to renal outflow) causes, as well as parenchymal renal damage (Everett & Harrison, 1983). […] In man, the measurement of GFR has become accepted as a routine method for the assessment of renal function. The classical technique using inulin, which is solely cleared from the plasma by glomerular filtration, involves its constant infusion with simultaneous urine collec- tion (Jones, 1985). However, in mice, a constant infusion of inulin and simultaneous urine collection would require anaes- thesia or rigid restraint and complete emptying of the bladder before and at completion of the test (Ragan, 1989). Therefore a b Correspondence: D.I. Jodrell, Clinical Pharmacology, Drug Develop- ment Section, E Block, Institute of Cancer Research, 15 Cotswold Road, Sutton, Surrey SM2 5NG, UK. *Present address: Cancer Research Unit, The Medical School, Uni- versity of Newcastle upon Tyne, Framlington Place, Newcastle upon Tyne NE2 4HH, UK. Received 5 June 1991; and in revised form 19 July 1991. […]"}, "[5]": {"system": "patients", "conditions": "cited from earlier work"}, "[6]": {"system": "mice", "design": "method as in Jodrell et al., 1990", "conditions": "single bolus doses of 500 mg kg-1; ref Jodrell et al., 1990; cited from earlier work"}, "[7]": {"conditions": "compared with CB3717; cited from earlier work"}, "[8]": {"conditions": "100 mg kg-1 weekly for 6 weeks, 1 week after final dose"}}, "data": [{"smiles": "C#CCN(Cc1ccc2nc(N)[nH]c(=O)c2c1)c1ccc(C(=O)N[C@@H](CCC(=O)O)C(=O)O)cc1", "note": "[CB3717, N10-propargyl-5,8-dideazafolic acid]", "values": [{"measurement": "plasma biochemistry (urea and creatinine concentrations)", "setting": "[1]", "value": "normal"}, {"measurement": "reduction in GFR", "setting": "[2]; 200 mg kg-1 single ip bolus, 5 days after (Figure 4)", "value": "> 70", "unit": "%"}, {"measurement": "persistence of renal damage", "setting": "[2]; single dose 100 mg kg-1", "value": "> 6", "unit": "weeks"}, {"measurement": "GFR", "setting": "[2]; single dose of 10 mg kg-1 (30 mg m-2), 5 days after", "value": "normal"}, {"measurement": "radioactivity in the kidneys", "setting": "[3]", "value": "still detectable"}, {"measurement": "kidney histology", "setting": "[4]; [8]", "value": "Cortical scarring with tubular dilatation and amorphous casts"}, {"measurement": "kidney histology", "setting": "[4]; single dose 10 mg kg-1, 5 days after", "value": "normal"}, {"measurement": "kidney histology", "setting": "[4]; single dose 50 mg kg-1, 5 days after", "value": "focal tubular dilatation"}, {"measurement": "kidney histology", "setting": "[4]; single dose 100 mg kg-1, 14 weeks, small number of animals", "value": "cortical scarring and the presence of amorphous casts"}, {"measurement": "kidney histology", "setting": "[4]; single dose 100 mg kg-1, 24 h after administration", "value": "tubular dilatation"}, {"measurement": "kidney histology", "setting": "[4]; single dose 100 mg kg-1, day 3", "value": "focal tubular dilatation"}, {"measurement": "kidney histology", "setting": "[4]; single dose 100 mg kg-1, day 20", "value": "glomerular atrophy"}, {"measurement": "kidney histology", "setting": "[4]; single dose 100 mg kg-1, days 5 and 7", "value": "Tubular dilatation persisted through days 5 and 7 with increased tubular mitotic activity"}, {"measurement": "kidney histology", "setting": "[4]; single dose 100 mg kg-1, six weeks (42 days)", "value": "deeply pitted scars"}, {"measurement": "courses with reductions in GFR (creatinine clearance) of >20%", "setting": "[5]; 6/17 courses at 400 mg m2 despite alkalinisation of the urine, ref Sessa et al., 1988", "value": 35, "unit": "%"}, {"measurement": "lowest dose causing renal damage (reduction in GFR)", "setting": "[5]; bolus injection at weekly intervals, in man, ref Vest et al., 1988", "value": 10, "unit": "mg m2"}, {"measurement": "patients with elevated urinary NAG and LAP levels", "setting": "[5]; patients studied, not dose related, ref Calvert et al., 1986", "value": 50, "unit": "%"}, {"measurement": "patients with >20% reduction in GFR", "setting": "[5]; seven of 12 patients receiving more than 400 mg m2, ref Calvert et al., 1986", "value": 58, "unit": "%"}]}, {"smiles": "Cc1nc2ccc(CN(C)c3ccc(C(=O)N[C@@H](CCC(=O)O)C(=O)O)s3)cc2c(=O)[nH]1", "note": "[ICI D1694, N-(5-[N-(3,4-dihydro-2-methyl-4-oxoquinazolin-6-ylmethyl)-N-methylamino]-2-thenoyl)-L-glutamic acid]", "values": [{"measurement": "kidney histology", "setting": "[4]; [8]", "value": "no histological evidence of renal damage"}, {"measurement": "kidney histology", "setting": "[4]; 250 mg kg-1 weekly for 6 weeks, 1 week after final dose", "value": "normal in 5/5 mice"}, {"measurement": "acute renal toxicity", "setting": "[6]", "value": "absence of acute renal toxicity"}, {"measurement": "water solubility", "setting": "[7]", "value": "more water soluble"}]}]}
